Measured values reported in patent publication US20210115104A1, “AMYLIN ANALOGUES” (Zealand Pharma A/S, priority 2015, published 2021).
*1 amine or outer side, *2 acyl side, *3 side chain or, on linkers, in order; H or OH if unused. Where a SMILES comes first, the peptide text is derived from it. Bridges are numbered along the chain shown (N, C = ends). [ ]: non-standard residue; d: D form. The star is where a group is joined. C20 diacid = O=C(O)CCCCCCCCCCCCCCCCCCC(=O)*; γGlu = O=C(O)[C@H](CCC(=O)[*:2])N[*:1]; Hyp = O=C(O)[C@@H]1C[C@@H](O)CN1; NMeI = CC[C@H](C)[C@H](NC)C(=O)O; Sar = CNCC(=O)O

Assays:
[1] = Assessment of physical stability (Thioflavin T fibrillation); type: physicochemical; design: key: FND = fibrillation not detected; FD = fibrillation detected; conditions: 1 mg/ml, 40° C., ThT; for Fibrillation pH 4.0 (Ac): 50 mM acetate buffer pH 4.0, 96 hours; for Fibrillation pH 7.0 (His): 50 mM histidine buffer pH 7.0, 96 hours; for Fibrillation pH 7.0 (Phos.): 50 mM phosphate buffer pH 7.0, 96 hours
How it was run: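 Fibrillation lag-time, in hours, taken where regressions of the initial stable phase and the growth phase intersect. ThT (40 μM) fluorescence monitored at 40 °C for 96 h, 10-min reads each preceded by 300 s mixing. Peptide at 1 mg/ml in 50 mM buffers: phosphate or histidine pH 7.0, acetate pH 4.0.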

[2] = biological target: T1, human amylin receptor 3 (hAMYR3), hCTR2 co-expressed with hRAMP3 (Homo sapiens, UniProt O60896+P30988); experiment: hAMYR3 cAMP assay (AlphaScreen) in COS7 cells; type: cell-based; conditions: cAMP induction, COS7 cells expressing hAMYR3; Table 1; read-out: hAMYR3 EC50
T1 construct: expressed in transfected cells
T1 sequence (P30988 25-474): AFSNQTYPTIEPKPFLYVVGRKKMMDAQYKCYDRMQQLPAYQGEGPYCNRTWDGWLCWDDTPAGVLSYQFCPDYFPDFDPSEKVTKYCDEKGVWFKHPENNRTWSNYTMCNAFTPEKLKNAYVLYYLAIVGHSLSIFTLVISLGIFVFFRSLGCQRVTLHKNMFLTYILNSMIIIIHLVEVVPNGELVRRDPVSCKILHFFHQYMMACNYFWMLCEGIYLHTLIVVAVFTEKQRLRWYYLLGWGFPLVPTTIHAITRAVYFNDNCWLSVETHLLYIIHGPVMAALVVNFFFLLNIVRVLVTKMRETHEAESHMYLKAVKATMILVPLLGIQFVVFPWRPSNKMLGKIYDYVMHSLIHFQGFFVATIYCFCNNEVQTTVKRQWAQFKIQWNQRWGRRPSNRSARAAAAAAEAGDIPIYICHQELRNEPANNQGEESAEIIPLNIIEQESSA
T1 sequence (O60896 24-148 partner): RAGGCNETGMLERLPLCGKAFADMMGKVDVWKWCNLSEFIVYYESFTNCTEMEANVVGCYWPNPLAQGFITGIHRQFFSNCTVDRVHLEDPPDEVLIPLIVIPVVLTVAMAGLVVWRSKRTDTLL
How it was run: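 EC50 values derive from 4PL curve fits of cAMP (AlphaScreen) in lysates of RAMP-naive COS7 cells stably carrying hCTR2 plus hRAMP3. Peptide dilution series were applied for 15 min at 37 °C in pH 7.4 Tyrode buffer containing 100 µM IBMX and 0.1% casein.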

[3] = biological target: T2, human calcitonin receptor (hCTR2) (Homo sapiens, UniProt P30988); experiment: hCTR2 cAMP assay (AlphaScreen) in COS7 cells; type: cell-based; conditions: cAMP induction, COS7 cells expressing hCTR2; Table 1; read-out: hCTR2 EC50
T2 construct: expressed in transfected cells
T2 sequence (P30988 25-474): T1 sequence (P30988 25-474)
How it was run: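 cAMP induction, read by AlphaScreen after lysis, gives EC50 values via 4PL curve fitting. Peptides were applied at rising concentrations for 15 min at 37 °C, with IBMX and 0.1% casein in HEPES-buffered Tyrode pH 7.4, to COS7 cells (no endogenous RAMPs) stably expressing human CTR2.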

| SMILES | Fibrillation pH 4.0 (Ac) [1] | Fibrillation pH 7.0 (His) [1] | Fibrillation pH 7.0 (Phos.) [1] | EC50 [2] [nM] | EC50 [3] [nM] |
| --- | --- | --- | --- | --- | --- |
| CC[C@H](C)[C@@H](C(=O)N[C@@H](CC(C)C)C(=O)N[C@@H](CO)C(=O)N[C@@H](CO)C(=O)N[C@H](C(=O)N[C@@H](CC(=O)O)C(=O)N[C@H](C(=O)NCC(=O)N[C@@H](CO)C(=O)N[C@@H](CC(=O)O)C(=O)N[C@H](C(=O)N1CCC[C@H]1C(N)=O)[C@@H](C)O)C(C)C)[C@@H](C)O)N(C)C(=O)[C@H](C)NC(=O)CN(C)C(=O)[C@H](Cc1ccccc1)NC(=O)[C@H](CO)NC(=O)[C@H](CO)NC(=O)[C@H](CCCNC(=N)N)NC(=O)[C@H](Cc1c[nH]cn1)NC(=O)[C@H](CC(C)C)NC(=O)[C@H](Cc1ccccc1)NC(=O)[C@H](Cc1c[nH]cn1)NC(=O)[C@H](C)NC(=O)[C@H](CC(C)C)NC(=O)[C@H](CCCNC(=N)N)NC(=O)[C@H](CC(=O)O)NC(=O)[C@@H](NC(=O)[C@H](C)NC(=O)[C@@H]1CSSC[C@H](NC(=O)[C@H](CCCNC(=N)N)NC(=O)CC[C@H](NC(=O)CCCCCCCCCCCCCCCCCCC(=O)O)C(=O)O)C(=O)N2CCC[C@H]2C(=O)N[C@@H]([C@@H](C)O)C(=O)N[C@@H](C)C(=O)N[C@@H]([C@@H](C)O)C(=O)N1)[C@@H](C)O [Compound 27, [19CD]-isoGlu-R-C( )-PTAT-C( )-ATDRLAHFLHRSSF-Gly(Me)-A-Ile(Me)-LSSTDVGSDTP-NH2] ({C20 diacid-γGlu}-RCPTATCATDRLAHFLHRSSF[Sar]A[NMeI]LSSTDVGSDTP-NH2; disulfide 2-7) | FD | FD | FD | 0.16 | 0.063 |
| CC[C@H](C)[C@@H](C(=O)N[C@@H](CC(C)C)C(=O)N[C@@H](CO)C(=O)N[C@@H](CO)C(=O)N[C@H](C(=O)N[C@@H](CCC(=O)O)C(=O)N[C@H](C(=O)NCC(=O)N[C@@H](CO)C(=O)N[C@@H](CCC(=O)O)C(=O)N[C@H](C(=O)N1CCC[C@H]1C(N)=O)[C@@H](C)O)C(C)C)[C@@H](C)O)N(C)C(=O)[C@H](C)NC(=O)CN(C)C(=O)[C@H](Cc1ccccc1)NC(=O)[C@H](CO)NC(=O)[C@@H](NC(=O)[C@H](CCCNC(=N)N)NC(=O)[C@H](Cc1c[nH]cn1)NC(=O)[C@H](CC(C)C)NC(=O)[C@H](Cc1ccccc1)NC(=O)[C@H](Cc1c[nH]cn1)NC(=O)[C@H](C)NC(=O)[C@H](CC(C)C)NC(=O)[C@H](CCCNC(=N)N)NC(=O)[C@H](CCC(N)=O)NC(=O)[C@@H](NC(=O)[C@H](C)NC(=O)[C@@H]1CSSC[C@H](NC(=O)[C@H](CCCNC(=N)N)NC(=O)CC[C@H](NC(=O)CCCCCCCCCCCCCCCCCCC(=O)O)C(=O)O)C(=O)N[C@@H](CC(N)=O)C(=O)N[C@@H]([C@@H](C)O)C(=O)N[C@@H](C)C(=O)N[C@@H]([C@@H](C)O)C(=O)N1)[C@@H](C)O)C(C)C [Compound 21, [19CD]-isoGlu-R-C( )-NTAT-C( )-ATQRLAHFLHRVSF-Gly(Me)-A-Ile(Me)-LSSTEVGSETP-NH2] ({C20 diacid-γGlu}-RCNTATCATQRLAHFLHRVSF[Sar]A[NMeI]LSSTEVGSETP-NH2; disulfide 2-7) | FND | FD | FD | 0.23 | 0.12 |
| CC[C@H](C)[C@@H](C(=O)N[C@@H](CC(C)C)C(=O)N[C@@H](CO)C(=O)N[C@@H](CO)C(=O)N[C@H](C(=O)N[C@@H](CCC(=O)O)C(=O)N[C@H](C(=O)NCC(=O)N[C@@H](CO)C(=O)N[C@@H](Cc1ccccc1)C(=O)N[C@H](C(=O)N1C[C@H](O)C[C@H]1C(N)=O)[C@@H](C)O)C(C)C)[C@@H](C)O)N(C)C(=O)[C@H](C)NC(=O)CN(C)C(=O)[C@H](Cc1ccccc1)NC(=O)[C@H](CO)NC(=O)[C@H](CO)NC(=O)[C@H](CCCNC(=N)N)NC(=O)[C@H](CCC(N)=O)NC(=O)[C@H](CC(C)C)NC(=O)[C@H](Cc1ccccc1)NC(=O)[C@H](Cc1c[nH]cn1)NC(=O)[C@H](C)NC(=O)[C@H](CC(C)C)NC(=O)[C@H](CCCNC(=N)N)NC(=O)[C@H](CCC(=O)O)NC(=O)[C@@H](NC(=O)[C@H](C)NC(=O)[C@@H]1CSSC[C@H](NC(=O)[C@H](CCCNC(=N)N)NC(=O)CC[C@H](NC(=O)CCCCCCCCCCCCCCCCCCC(=O)O)C(=O)O)C(=O)NCC(=O)N[C@@H]([C@@H](C)O)C(=O)N[C@@H](C)C(=O)N[C@@H]([C@@H](C)O)C(=O)N1)[C@@H](C)O [Compound 32, [19CD]-isoGlu-R-C( )-GTAT-C( )-ATERLAHFLQRSSF-Gly(Me)-A-Ile(Me)-LSSTEVGSFT-Hyp-NH2] ({C20 diacid-γGlu}-RCGTATCATERLAHFLQRSSF[Sar]A[NMeI]LSSTEVGSFT[Hyp]-NH2; disulfide 2-7) | FND | FD | FD | 0.23 | 0.17 |
| CC[C@H](C)[C@@H](C(=O)N[C@@H](CC(C)C)C(=O)N[C@@H](CO)C(=O)N[C@@H](CO)C(=O)N[C@H](C(=O)N[C@@H](CCC(=O)O)C(=O)N[C@H](C(=O)NCC(=O)N[C@@H](CO)C(=O)N[C@@H](CCC(=O)O)C(=O)N[C@H](C(=O)N1CCC[C@H]1C(N)=O)[C@@H](C)O)C(C)C)[C@@H](C)O)N(C)C(=O)[C@H](C)NC(=O)CN(C)C(=O)[C@H](Cc1ccccc1)NC(=O)[C@H](CO)NC(=O)[C@H](CO)NC(=O)[C@H](CCCNC(=N)N)NC(=O)[C@H](Cc1c[nH]cn1)NC(=O)[C@H](CC(C)C)NC(=O)[C@H](Cc1ccccc1)NC(=O)[C@H](CC(=O)O)NC(=O)[C@H](C)NC(=O)[C@H](CC(C)C)NC(=O)[C@H](CCCNC(=N)N)NC(=O)[C@H](CCC(N)=O)NC(=O)[C@@H](NC(=O)[C@H](C)NC(=O)[C@@H]1CSSC[C@H](NC(=O)[C@H](CCCNC(=N)N)NC(=O)CC[C@H](NC(=O)CCCCCCCCCCCCCCCCCCC(=O)O)C(=O)O)C(=O)N[C@@H](CC(N)=O)C(=O)N[C@@H]([C@@H](C)O)C(=O)N[C@@H](C)C(=O)N[C@@H]([C@@H](C)O)C(=O)N1)[C@@H](C)O [Compound 1, [19CD]-isoGlu-R-C( )-NTAT-C( )-ATQRLADFLHRSSF-Gly(Me)-A-Ile(Me)-LSSTEVGSETP-NH2] ({C20 diacid-γGlu}-RCNTATCATQRLADFLHRSSF[Sar]A[NMeI]LSSTEVGSETP-NH2; disulfide 2-7) | FND | FND | FND | 0.23 | 0.079 |
